SMILES strings stand for the structures. Where only a bound is given, the exact number is not on record here.

The record followed here is ChEMBL document CHEMBL5291721, “A preclinical secondary pharmacology resource illuminates target-adverse drug reaction associations of marketed drugs” (Nat Commun, 2023).

Test [1] deals with Delta-type opioid receptor (Homo sapiens, UniProt P41143).
Test [2] addresses T1, Equilibrative nucleoside transporter 1 (Homo sapiens, UniProt Q99808).
T1 sequence (Q99808 whole entry): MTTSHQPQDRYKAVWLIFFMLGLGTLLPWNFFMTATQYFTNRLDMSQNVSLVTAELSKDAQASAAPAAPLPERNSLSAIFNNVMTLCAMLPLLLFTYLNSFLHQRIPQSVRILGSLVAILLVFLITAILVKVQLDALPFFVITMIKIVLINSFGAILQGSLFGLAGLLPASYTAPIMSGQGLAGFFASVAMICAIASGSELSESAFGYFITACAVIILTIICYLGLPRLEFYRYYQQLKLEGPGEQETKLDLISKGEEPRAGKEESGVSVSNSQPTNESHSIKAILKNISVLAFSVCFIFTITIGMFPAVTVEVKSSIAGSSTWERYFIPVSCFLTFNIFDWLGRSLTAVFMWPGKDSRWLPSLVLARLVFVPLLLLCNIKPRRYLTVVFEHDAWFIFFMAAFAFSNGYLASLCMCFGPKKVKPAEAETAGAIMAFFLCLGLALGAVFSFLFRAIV

The target of test [3] is Neuronal acetylcholine receptor subunit alpha-4 (Homo sapiens, UniProt P43681).
The next test has as its target Histamine H1 receptor (Homo sapiens, UniProt P35367).
For test [4], the target named is T2, Type-1 angiotensin II receptor (Homo sapiens, UniProt P30556).
T2 sequence (P30556 whole entry): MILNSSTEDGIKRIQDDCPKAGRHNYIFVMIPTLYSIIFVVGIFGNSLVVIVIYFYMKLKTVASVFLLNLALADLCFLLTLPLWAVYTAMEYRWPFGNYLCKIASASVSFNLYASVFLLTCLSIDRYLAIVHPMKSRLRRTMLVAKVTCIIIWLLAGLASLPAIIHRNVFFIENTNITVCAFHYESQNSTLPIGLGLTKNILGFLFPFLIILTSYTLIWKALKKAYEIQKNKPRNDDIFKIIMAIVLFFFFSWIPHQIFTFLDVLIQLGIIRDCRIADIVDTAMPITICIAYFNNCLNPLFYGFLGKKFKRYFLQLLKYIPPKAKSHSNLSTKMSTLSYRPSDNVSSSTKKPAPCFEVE

For test [5], the target named is 5-hydroxytryptamine receptor 2A (Homo sapiens, UniProt P28223). Type of test: functional, cell-based.
Test [6] deals with T3, Cholecystokinin receptor type A (Homo sapiens, UniProt P32238).
T3 sequence (P32238 whole entry): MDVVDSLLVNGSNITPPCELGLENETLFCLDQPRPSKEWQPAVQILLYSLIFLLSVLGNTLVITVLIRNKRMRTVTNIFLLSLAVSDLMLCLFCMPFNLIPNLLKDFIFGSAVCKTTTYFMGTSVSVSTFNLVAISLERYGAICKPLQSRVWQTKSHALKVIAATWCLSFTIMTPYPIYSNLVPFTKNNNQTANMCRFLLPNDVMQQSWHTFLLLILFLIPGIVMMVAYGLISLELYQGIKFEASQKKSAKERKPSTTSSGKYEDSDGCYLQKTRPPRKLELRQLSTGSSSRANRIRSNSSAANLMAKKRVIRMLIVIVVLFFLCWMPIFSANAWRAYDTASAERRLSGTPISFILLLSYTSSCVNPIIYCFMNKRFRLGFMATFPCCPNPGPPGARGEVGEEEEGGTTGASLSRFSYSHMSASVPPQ

For test [7], the target named is T4, Muscarinic acetylcholine receptor M2 (Homo sapiens, UniProt P08172).
T4 sequence (P08172 whole entry): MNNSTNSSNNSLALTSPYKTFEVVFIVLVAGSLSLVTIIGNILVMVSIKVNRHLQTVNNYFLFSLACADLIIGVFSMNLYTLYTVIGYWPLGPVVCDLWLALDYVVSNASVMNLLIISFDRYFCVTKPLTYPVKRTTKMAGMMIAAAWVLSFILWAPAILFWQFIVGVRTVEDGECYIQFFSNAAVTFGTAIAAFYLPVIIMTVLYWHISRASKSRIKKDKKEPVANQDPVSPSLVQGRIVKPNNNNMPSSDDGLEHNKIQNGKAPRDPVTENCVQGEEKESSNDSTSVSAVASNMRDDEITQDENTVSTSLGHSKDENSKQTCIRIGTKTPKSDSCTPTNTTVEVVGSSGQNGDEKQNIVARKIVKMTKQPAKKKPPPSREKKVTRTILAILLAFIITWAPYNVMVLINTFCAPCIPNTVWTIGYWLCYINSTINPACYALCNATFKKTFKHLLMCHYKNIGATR
It counts as functional, cell-based.

A further test addresses T5, Adenosine receptor A1 (Homo sapiens, UniProt P30542).
T5 sequence (P30542 whole entry): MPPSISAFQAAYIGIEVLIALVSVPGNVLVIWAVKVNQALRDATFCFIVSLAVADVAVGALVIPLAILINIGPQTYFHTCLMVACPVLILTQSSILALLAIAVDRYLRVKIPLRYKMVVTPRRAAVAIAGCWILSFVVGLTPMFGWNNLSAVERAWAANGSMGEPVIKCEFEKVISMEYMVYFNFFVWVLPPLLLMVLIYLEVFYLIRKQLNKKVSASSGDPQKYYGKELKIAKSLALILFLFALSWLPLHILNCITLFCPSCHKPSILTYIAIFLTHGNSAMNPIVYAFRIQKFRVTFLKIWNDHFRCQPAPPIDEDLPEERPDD

Test [8] addresses T6, 5-hydroxytryptamine receptor 3A (Homo sapiens, UniProt P46098).
T6 sequence (P46098 whole entry): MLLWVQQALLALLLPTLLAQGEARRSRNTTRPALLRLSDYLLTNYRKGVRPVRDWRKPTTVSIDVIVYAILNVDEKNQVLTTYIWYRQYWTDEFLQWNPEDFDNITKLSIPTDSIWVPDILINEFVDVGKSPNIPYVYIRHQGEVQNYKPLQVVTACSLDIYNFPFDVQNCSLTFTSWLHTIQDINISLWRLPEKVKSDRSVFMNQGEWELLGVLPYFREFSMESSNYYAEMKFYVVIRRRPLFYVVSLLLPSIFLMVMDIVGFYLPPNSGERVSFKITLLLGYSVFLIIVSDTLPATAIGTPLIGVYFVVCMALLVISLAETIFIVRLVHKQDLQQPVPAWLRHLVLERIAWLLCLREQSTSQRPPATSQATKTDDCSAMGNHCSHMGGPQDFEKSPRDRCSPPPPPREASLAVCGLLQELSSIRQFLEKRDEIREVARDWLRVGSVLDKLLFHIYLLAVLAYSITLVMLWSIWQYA
It counts as functional.
Further: assay procedure not described here.

Chain of 5-hydroxytryptamine receptor 2A (P28223 whole entry): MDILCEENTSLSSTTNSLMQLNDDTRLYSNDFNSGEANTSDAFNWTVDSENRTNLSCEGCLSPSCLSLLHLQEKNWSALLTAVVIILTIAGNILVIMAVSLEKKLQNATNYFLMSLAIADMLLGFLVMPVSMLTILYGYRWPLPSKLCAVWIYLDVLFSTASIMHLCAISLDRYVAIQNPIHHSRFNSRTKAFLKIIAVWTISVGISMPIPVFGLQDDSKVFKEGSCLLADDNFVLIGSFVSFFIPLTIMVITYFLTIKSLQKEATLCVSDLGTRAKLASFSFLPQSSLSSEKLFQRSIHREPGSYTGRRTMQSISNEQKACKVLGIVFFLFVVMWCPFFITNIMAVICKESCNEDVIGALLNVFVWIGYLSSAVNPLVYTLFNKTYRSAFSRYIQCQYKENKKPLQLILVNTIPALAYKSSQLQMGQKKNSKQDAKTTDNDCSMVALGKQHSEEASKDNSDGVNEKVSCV
Chain of Neuronal acetylcholine receptor subunit alpha-4 (P43681 whole entry): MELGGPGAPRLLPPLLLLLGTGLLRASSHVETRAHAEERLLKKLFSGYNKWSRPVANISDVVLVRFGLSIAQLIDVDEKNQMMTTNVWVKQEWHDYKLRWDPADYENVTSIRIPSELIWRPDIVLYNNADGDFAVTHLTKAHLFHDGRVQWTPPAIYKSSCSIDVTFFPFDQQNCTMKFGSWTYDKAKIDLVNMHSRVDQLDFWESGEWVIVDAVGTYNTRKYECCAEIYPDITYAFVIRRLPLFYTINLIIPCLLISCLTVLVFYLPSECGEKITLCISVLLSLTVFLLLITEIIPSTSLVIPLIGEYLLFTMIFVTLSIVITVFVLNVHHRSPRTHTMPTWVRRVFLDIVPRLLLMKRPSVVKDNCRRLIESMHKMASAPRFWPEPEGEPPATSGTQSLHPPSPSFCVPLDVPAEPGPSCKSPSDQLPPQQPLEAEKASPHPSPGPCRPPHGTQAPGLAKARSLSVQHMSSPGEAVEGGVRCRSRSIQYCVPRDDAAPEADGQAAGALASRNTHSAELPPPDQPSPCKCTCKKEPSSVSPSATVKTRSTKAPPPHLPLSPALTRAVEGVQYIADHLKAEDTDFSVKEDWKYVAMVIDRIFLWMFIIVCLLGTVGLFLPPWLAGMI
Chain of Delta-type opioid receptor (P41143 whole entry): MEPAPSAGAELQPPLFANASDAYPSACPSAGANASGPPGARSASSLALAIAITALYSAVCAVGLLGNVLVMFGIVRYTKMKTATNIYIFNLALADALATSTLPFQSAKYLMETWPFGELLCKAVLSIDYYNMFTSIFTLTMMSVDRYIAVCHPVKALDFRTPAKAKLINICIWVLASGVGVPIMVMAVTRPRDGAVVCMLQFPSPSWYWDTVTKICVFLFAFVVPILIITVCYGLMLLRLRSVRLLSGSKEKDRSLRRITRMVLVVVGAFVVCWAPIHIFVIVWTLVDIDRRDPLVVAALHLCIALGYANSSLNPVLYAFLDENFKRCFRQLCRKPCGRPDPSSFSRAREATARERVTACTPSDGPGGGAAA
Chain of Histamine H1 receptor (P35367 whole entry): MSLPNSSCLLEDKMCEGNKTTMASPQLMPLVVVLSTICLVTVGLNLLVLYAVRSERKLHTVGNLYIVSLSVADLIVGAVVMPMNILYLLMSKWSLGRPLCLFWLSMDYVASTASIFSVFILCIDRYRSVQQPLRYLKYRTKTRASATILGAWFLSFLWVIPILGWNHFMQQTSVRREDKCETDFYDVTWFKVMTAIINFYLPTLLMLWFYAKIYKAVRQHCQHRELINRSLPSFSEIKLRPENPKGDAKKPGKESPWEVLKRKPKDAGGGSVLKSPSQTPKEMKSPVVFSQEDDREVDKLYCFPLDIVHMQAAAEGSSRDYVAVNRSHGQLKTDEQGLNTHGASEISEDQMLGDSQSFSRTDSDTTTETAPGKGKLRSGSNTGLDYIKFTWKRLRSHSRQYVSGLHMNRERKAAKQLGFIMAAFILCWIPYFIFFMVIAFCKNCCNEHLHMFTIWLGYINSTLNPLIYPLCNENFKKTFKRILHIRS

In the case of `Cc1cccc(C(C)c2cnc[nH]2)c1C` (stereo not given) [MEDETOMIDINE], the AC50 (in [1]; in test [2]; in test [3]; at Histamine H1 receptor; in [4]; in test [5]) was more than 30 µM in each case. Also, the AC50 in test [6] is more than 30 µM; in test [7] it was more than 10 µM; on Adenosine receptor A1 it was more than 30 µM; in [8] it was more than 30 µM.
As to `C[C@H](N)[C@H](O)c1cccc(O)c1` [METARAMINOL], the AC50 in test [1] is more than 30 µM; in test [2] it was more than 10 µM; in [3] it was more than 10 µM; at Histamine H1 receptor it was more than 10 µM; in test [4] it was more than 10 µM; in test [5], 35 µM. Further, the AC50 is more than 10 µM in test [6], more than 10 µM in test [7], more than 10 µM at Adenosine receptor A1 and more than 30 µM in test [8].
In the case of `CCC1(CC)C(=O)NCC(C)C1=O` (stereo not given) [METHYPRYLON], the AC50 (in [1]; in [2]; in test [3]; at Histamine H1 receptor; in [4]; in [5]) was more than 30 µM throughout. Moreover, the AC50 (in test [6]; in [7]; on Adenosine receptor A1; in test [8]) was more than 30 µM throughout.
In the case of `O=C(O)[C@H](CC(=O)N1C[C@H]2CCCC[C@H]2C1)Cc1ccccc1` [MITIGLINIDE], the AC50 in test [1] was more than 30 µM; in test [2], more than 10 µM; in test [3], more than 10 µM; on Histamine H1 receptor it was more than 10 µM; in test [4] it was more than 10 µM; in test [5], more than 10 µM. For the same molecule, the AC50 in test [6] was more than 10 µM; in [7], more than 10 µM; at Adenosine receptor A1 it was more than 10 µM; in test [8], more than 30 µM.
Take `CCOC(=O)[N-]c1cn(N2CCOCC2)n[o+]1` [MOLSIDOMINE]: the AC50 in test [1] was more than 10 µM; in test [2], more than 30 µM; in [3], more than 30 µM; on Histamine H1 receptor it was more than 30 µM; in [4], more than 30 µM; in test [5], more than 30 µM. For the same molecule, the AC50 (in [6]; in [7]; at Adenosine receptor A1; in [8]) was more than 30 µM in each case.
As for `OC(CNCC(O)C1CCc2cc(F)ccc2O1)C1CCc2cc(F)ccc2O1` (stereo not given) [NEBIVOLOL], the AC50 (in test [1]; in test [2]; in test [3]; at Histamine H1 receptor; in test [4]; in [5]) was more than 30 µM throughout. In addition, the AC50 in [6] was more than 30 µM; in [7], more than 10 µM; at Adenosine receptor A1, more than 30 µM; in [8], more than 30 µM.
In the case of `CCCc1nc(C(C)(C)O)c(C(=O)OCc2oc(=O)oc2C)n1Cc1ccc(-c2ccccc2-c2nnn[nH]2)cc1` [OLMESARTAN MEDOXOMIL], the AC50 in test [1] was more than 10 µM; in test [2] it was more than 50 µM; in test [3], more than 10 µM; at Histamine H1 receptor, more than 10 µM; in test [4], 0.0009 µM; in test [5], more than 30 µM. Moreover, the AC50 is more than 50 µM in test [6], more than 10 µM in [7], more than 50 µM at Adenosine receptor A1 and more than 10 µM in test [8].
Consider `CCCC(C)C1(CC)C(=O)NC(=O)NC1=O` (stereo not given) [PENTOBARBITAL], for which the AC50 in [1] is 19 µM; in test [2], more than 10 µM; in test [3] it was more than 10 µM; on Histamine H1 receptor it was more than 30 µM; in test [4], more than 10 µM; in test [5] it was more than 10 µM. Also, the AC50 in test [6] is more than 10 µM; in test [7], more than 10 µM; on Adenosine receptor A1, more than 10 µM; in test [8] it was more than 30 µM.
In the case of `O=C(O)C[C@H](O)C[C@H](O)/C=C/c1c(C2CC2)nc2ccccc2c1-c1ccc(F)cc1` [PITAVASTATIN], the AC50 in test [1] was more than 30 µM; in test [2] it was more than 10 µM; in test [3], more than 30 µM; at Histamine H1 receptor, more than 30 µM; in test [4], more than 30 µM; in test [5], more than 30 µM. For the same molecule, the AC50 in test [6] was more than 10 µM; in test [7], more than 30 µM; on Adenosine receptor A1, more than 10 µM; in test [8], more than 30 µM.
With `CN1CCC(=C2c3ccccc3CCc3sccc32)CC1` [PIZOTYLINE], the AC50 in [1] was more than 30 µM; in [2], more than 30 µM; in test [3] it was more than 10 µM; on Histamine H1 receptor, 0.0047 µM; in test [4], more than 30 µM; in test [5] it was more than 30 µM. Also, the AC50 was more than 30 µM in test [6], 0.123 µM in test [7], more than 30 µM at Adenosine receptor A1 and 1.4 µM in test [8].
On to `C#C[C@]1(O)CC[C@H]2[C@@H]3CCc4cc(OC5CCCC5)ccc4[C@H]3CC[C@@]21C` [QUINESTROL], for which the AC50 in test [1] is more than 30 µM; in test [2], more than 10 µM; in test [3], more than 10 µM; at Histamine H1 receptor, more than 10 µM; in [4], more than 10 µM; in test [5], more than 10 µM. Also, the AC50 was more than 10 µM in [6], more than 10 µM in test [7], more than 10 µM on Adenosine receptor A1 and more than 30 µM in test [8].
Turning to `COC(=O)[C@H]1[C@H]2C[C@@H]3c4[nH]c5cc(OC)ccc5c4CCN3C[C@H]2C[C@@H](OC(=O)/C=C/c2cc(OC)c(OC)c(OC)c2)[C@@H]1OC` [RESCINNAMINE], the AC50 in test [1] was more than 30 µM; in [2] it was more than 30 µM; in [3], more than 10 µM; at Histamine H1 receptor, more than 10 µM; in test [4], more than 10 µM; in test [5] it was more than 10 µM. For the same molecule, the AC50 in test [6] is more than 10 µM; in [7], more than 10 µM; on Adenosine receptor A1 it was more than 30 µM; in test [8], more than 30 µM.

The AC50 is the concentration giving half of the maximal activity seen.
